Experiments:
[1] = tested on: poly A-poly U (RNA, polymer) A/U; assay: UV melting at 260 nm; settings: Na+ (50 mM sodium cacodylate); pH 7.4; r = [ligand]/[polynucleotide] = 0.05; caption says ctDNA, text b32 says poly A-poly U; per base
[2] = tested on: poly A-poly U (RNA, polymer) A/U; assay: fluorescent indicator displacement (EB); settings: Na+ (50 mM sodium cacodylate); pH 7.4; ethidium bromide displaced; polynucleotide 3-4 × 10^-5 M
[3] = tested on: poly A-poly U (RNA, polymer) A/U; assay: fluorescent indicator displacement (DAPI); settings: Na+ (50 mM sodium cacodylate); pH 7.4; DAPI displaced; polynucleotide 1-2 × 10^-5 M

Row | ΔTm [1] | SMILES | IC50 [2] | IC50 [3]
1 | 21.3 °C | NCCN(CCN)CCCNCCN1CCNCc2cccc(n2)CNCC1 | 0.63 [ligand]/[polynucleotide] ratio (dimensionless) | 0.85 [ligand]/[polynucleotide] ratio (dimensionless)
2 | 17.1 °C | c1cc2nc(c1)CNCCN(CCCNCCN1CCNCc3cccc(n3)CNCC1)CCNC2 | 0.86 [ligand]/[polynucleotide] ratio (dimensionless) | 0.45 [ligand]/[polynucleotide] ratio (dimensionless)

Reference: paper PMC8272215 (2021)
